For test [1], the target named is T1, Free fatty acid receptor 3 (Homo sapiens, UniProt O14843).
T1 sequence (O14843 whole entry): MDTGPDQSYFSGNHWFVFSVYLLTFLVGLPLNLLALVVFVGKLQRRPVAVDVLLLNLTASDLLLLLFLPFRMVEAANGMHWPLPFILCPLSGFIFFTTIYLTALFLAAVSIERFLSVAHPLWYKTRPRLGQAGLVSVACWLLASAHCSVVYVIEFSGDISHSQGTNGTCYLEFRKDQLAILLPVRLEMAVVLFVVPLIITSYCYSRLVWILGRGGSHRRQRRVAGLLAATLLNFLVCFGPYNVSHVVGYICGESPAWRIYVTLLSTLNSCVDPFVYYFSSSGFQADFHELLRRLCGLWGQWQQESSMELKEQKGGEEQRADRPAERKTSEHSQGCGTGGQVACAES
Briefly: Agonist activity at human GPCR41 transfected in HEK293 cells assessed as [35S]GTPgammaS binding by scintillation counting method. Type of test: functional, cell-based.

The target of test [2] is T2, Free fatty acid receptor 2 (Homo sapiens, UniProt O15552).
T2 sequence (O15552 whole entry): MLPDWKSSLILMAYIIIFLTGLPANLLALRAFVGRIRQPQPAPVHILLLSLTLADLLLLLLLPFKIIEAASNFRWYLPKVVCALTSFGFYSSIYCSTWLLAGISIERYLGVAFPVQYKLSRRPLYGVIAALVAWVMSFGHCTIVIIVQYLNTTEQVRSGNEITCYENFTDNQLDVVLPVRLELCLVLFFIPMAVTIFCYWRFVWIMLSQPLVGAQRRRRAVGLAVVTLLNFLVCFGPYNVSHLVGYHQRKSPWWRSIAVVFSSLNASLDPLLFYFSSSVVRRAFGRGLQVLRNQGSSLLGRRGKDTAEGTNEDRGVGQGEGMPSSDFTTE
The experiment in a line: Agonist activity at human GPCR43 transfected in HEK293 cells assessed as [35S]GTPgammaS binding by scintillation counting method.

For `CC(=O)O` [ACETIC ACID], the EC50 lay in the range of 12 to 274 µM in test [1] and 250 to 500 µM in test [2].

As for `CCCC(=O)O` [BUTYRIC ACID], the EC50 in test [1] was in the range of 12 to 274 µM.

`CCC(=O)O` [PROPIONIC ACID]: the half-maximal effective concentration (EC50) in test [1] is 12 to 274 µM.

As usually defined, the EC50 is the concentration giving half of the maximal effect.

(Values after ChEMBL document CHEMBL4028853, “Microbiota-Host Transgenomic Metabolism, Bioactive Molecules from the Inside” (J Med Chem, 2018).)
